Experimental data: US5858992A, “Non-reducing saccharides, their preparation and use” (Kabushiki Kaisha Hayashibara Seibutsu Kagaku Kenkyujo, priority 1995, dated 1999)

What was measured:
[1] = Maillard reaction (coloration with glycine); type: physicochemical; conditions: 10 w/v % saccharide, one w/v % glycine, 50 mM phosphate buffer pH 7.0, 100° C. for 90 min, 1-cm light-path cell
[2] = system: Streptococcus sobrinus ATCC 27351; assay: Acid formation by dental caries-inducing microorganisms; conditions: for pH at each fermentation time (min): living wet cells, 0.02M saccharide, Stephen buffer pH 7.0, 37° C.
[3] = system: Bifidobacterium longum JCM 1217; assay: Assimilation test by intestinal microorganism; type: cell-based; conditions: 0.5 w/v % saccharide in PYF broth, 37° C., 96 hours; free of sugar: -
[4] = system: Clostridium perfringens JCM 3816; type: cell-based; conditions: 0.5 w/v % saccharide in PYF broth, 37° C., 96 hours; free of sugar: -
[5] = system: Clostridium butyricum JCM 1391; type: cell-based; conditions: 0.5 w/v % saccharide in PYF broth, 37° C., 96 hours; free of sugar: -
[6] = system: Peptostreptococcus prevotii ATCC 9321; assay: Assimilation test by intestinal microorganism; type: cell-based; conditions: 0.5 w/v % saccharide in PYF broth, 37° C., 96 hours; free of sugar: -
Pancreatic juice amylase = biological target: T1, Pancreatic juice amylase (Homo sapiens, UniProt P04746); assay: in vitro
T1 sequence (P04746 16-511): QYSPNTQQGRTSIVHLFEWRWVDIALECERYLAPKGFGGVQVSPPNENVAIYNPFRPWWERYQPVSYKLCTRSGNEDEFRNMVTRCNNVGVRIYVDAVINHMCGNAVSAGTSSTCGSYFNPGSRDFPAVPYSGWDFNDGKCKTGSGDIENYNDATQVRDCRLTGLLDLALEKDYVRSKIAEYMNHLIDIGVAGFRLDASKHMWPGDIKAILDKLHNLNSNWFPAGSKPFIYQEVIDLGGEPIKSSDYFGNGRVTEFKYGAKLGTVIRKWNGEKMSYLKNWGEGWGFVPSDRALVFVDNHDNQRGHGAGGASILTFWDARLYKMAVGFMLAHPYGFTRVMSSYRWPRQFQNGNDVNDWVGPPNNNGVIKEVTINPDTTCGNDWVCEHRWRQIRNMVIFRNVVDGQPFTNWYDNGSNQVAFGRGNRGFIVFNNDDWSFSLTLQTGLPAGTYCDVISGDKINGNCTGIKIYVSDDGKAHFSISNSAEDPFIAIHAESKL

Acute toxicity test = type: in vivo; conditions: oral, mice; for LD50: mouse, in vivo
Text: As a result, no mouse died even when administered with a highest possible dose. This means that the LD50 is 50 g/kg mouse or more and concludes that it is extremely low in toxicity.

[7] = system: Bacteroides vulgatus JCM 5826; assay: Assimilation test by intestinal microorganism; type: cell-based; conditions: 0.5 w/v % saccharide in PYF broth, 37° C., 96 hours; free of sugar: -
[8] = system: Bacteroides distasonis JCM 5825; assay: Assimilation test by intestinal microorganism; type: cell-based; conditions: 0.5 w/v % saccharide in PYF broth, 37° C., 96 hours; free of sugar: -
[9] = system: Streptococcus faecalis IAM 10065; assay: Assimilation test by intestinal microorganism; type: cell-based; conditions: 0.5 w/v % saccharide in PYF broth, 37° C., 96 hours; free of sugar: -
[10] = system: Lactobacillus plantarum IFO 3070; assay: Assimilation test by intestinal microorganism; type: cell-based; conditions: 0.5 w/v % saccharide in PYF broth, 37° C., 96 hours; free of sugar: -
[11] = system: Bifidobacterium animalis JCM 1190; assay: Assimilation test by intestinal microorganism; type: cell-based; conditions: 0.5 w/v % saccharide in PYF broth, 37° C., 96 hours; free of sugar: -
[12] = system: Lactobacillus fermentum IFO 3959; assay: Assimilation test by intestinal microorganism; type: cell-based; conditions: 0.5 w/v % saccharide in PYF broth, 37° C., 96 hours; free of sugar: -
[13] = system: Bacteroides uniformis JCM 5828; assay: Assimilation test by intestinal microorganism; type: cell-based; conditions: 0.5 w/v % saccharide in PYF broth, 37° C., 96 hours; free of sugar: -
[14] = system: Bifidobacterium infantis JCM 1222; assay: Assimilation test by intestinal microorganism; type: cell-based; conditions: 0.5 w/v % saccharide in PYF broth, 37° C., 96 hours; free of sugar: -
[15] = system: Bifidobacterium adolescentis JCM 1275; assay: Assimilation test by intestinal microorganism; type: cell-based; conditions: 0.5 w/v % saccharide in PYF broth, 37° C., 96 hours; free of sugar: -
[16] = system: Bifidobacterium bifidum JCM 1255; assay: Assimilation test by intestinal microorganism; type: cell-based; conditions: 0.5 w/v % saccharide in PYF broth, 37° C., 96 hours; free of sugar: -
[17] = system: Eubacterium aerofaciens ATCC 25986; assay: Assimilation test by intestinal microorganism; type: cell-based; conditions: 0.5 w/v % saccharide in PYF broth, 37° C., 96 hours; free of sugar: -
[18] = system: Escherichia coli IFO 3301; assay: Assimilation test by intestinal microorganism; type: cell-based; conditions: 0.5 w/v % saccharide in PYF broth, 37° C., 96 hours; free of sugar: -
[19] = system: Clostridium ramosum JCM 1298; assay: Assimilation test by intestinal microorganism; type: cell-based; conditions: 0.5 w/v % saccharide in PYF broth, 37° C., 96 hours; free of sugar: -
[20] = system: Bifidobacterium breve JCM 1192; assay: Assimilation test by intestinal microorganism; type: cell-based; conditions: 0.5 w/v % saccharide in PYF broth, 37° C., 96 hours; free of sugar: -
Salivary amylase = biological target: T2, Salivary amylase (Homo sapiens, UniProt P0DUB6); assay: in vitro
T2 sequence (P0DUB6 16-511): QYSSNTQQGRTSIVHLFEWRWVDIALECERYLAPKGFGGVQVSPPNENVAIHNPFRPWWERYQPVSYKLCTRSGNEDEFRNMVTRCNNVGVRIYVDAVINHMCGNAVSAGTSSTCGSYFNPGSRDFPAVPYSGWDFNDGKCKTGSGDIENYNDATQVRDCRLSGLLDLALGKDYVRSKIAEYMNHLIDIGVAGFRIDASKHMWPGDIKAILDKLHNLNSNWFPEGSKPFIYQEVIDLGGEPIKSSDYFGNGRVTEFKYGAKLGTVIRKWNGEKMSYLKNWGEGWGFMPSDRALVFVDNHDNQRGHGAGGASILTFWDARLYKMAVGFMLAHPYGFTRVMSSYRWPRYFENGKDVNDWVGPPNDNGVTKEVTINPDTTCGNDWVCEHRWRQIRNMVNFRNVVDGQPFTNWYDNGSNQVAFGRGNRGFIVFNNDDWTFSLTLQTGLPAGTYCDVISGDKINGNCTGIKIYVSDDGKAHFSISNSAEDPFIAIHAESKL

in vitro = conditions: gastric acid

OC[C@H]1O[C@H](OC[C@H]2O[C@H](OC[C@H]3O[C@H](OC[C@H]4OC(O)[C@H](O)[C@@H](O)[C@@H]4O)[C@H](O)[C@@H](O)[C@@H]3O)[C@H](O)[C@@H](O)[C@@H]2O)[C@H](O)[C@@H](O)[C@@H]1O (stereo partly drawn) [Isomaltotetraose, isomaltotetraose, reference compound]
Coloration degree (at a wavelength of 480 nm) [1]: 0.495

OC[C@H]1O[C@@](CO)(O[C@H]2O[C@H](CO)[C@@H](O)[C@H](O)[C@H]2O)[C@@H](O)[C@@H]1O [Sucrose, reference compound]
pH reduction / acid fermentation, in words [2]: rapid | pH at each fermentation time (min) ([2]; 0 min): 7.0 | pH at each fermentation time (min) ([2]; 5 min): 4.3 | pH at each fermentation time (min) ([2]; 15 min): 4.1 | pH at each fermentation time (min) ([2]; 30 min): 4.0 | pH at each fermentation time (min) ([2]; 60 min): 4.0 | pH at each fermentation time (min) ([2]; 90 min): 4.0

OC[C@H]1O[C@H](OC[C@H]2O[C@H](O[C@H]3O[C@H](CO[C@H]4O[C@H](CO)[C@@H](O)[C@H](O)[C@H]4O)[C@@H](O)[C@H](O)[C@H]3O)[C@H](O)[C@@H](O)[C@@H]2O)[C@H](O)[C@@H](O)[C@@H]1O [α-Isomaltosyl α-isomaltoside, O-α-D-glucopyranosyl -(1→6)-α-D-glucopyranosyl-O-α-D-glucopyranosyl-(1→6) -α-D-glucopyranoside]
Judgement of assimilation (turbidity at 750 nm, ×5) [3]: +++ (0.3 or higher) | Solubility in solvent (Solubility in solvent; chloroform and ethyl acetate): Insoluble | Solubility in solvent (Solubility in solvent; methanol and ethanol): Hardly soluble | Judgement of assimilation (turbidity at 750 nm, ×5) [4]: - (Less than 0.1) | Judgement of assimilation (turbidity at 750 nm, ×5) [5]: +++ (0.3 or higher) | Judgement of assimilation (turbidity at 750 nm, ×5) [6]: ± (0.1 or higher but less than 0.15) | metabolised (Pancreatic juice amylase): 0.3% | LD50 (Acute toxicity test): ≥ 50000 mg/kg

O=C[C@H](O)[C@@H](O)[C@H](O)[C@H](O)CO [glucose, reference compound]
Judgement of assimilation (turbidity at 750 nm, ×5) [3]: +++ (0.3 or higher) | Judgement of assimilation (turbidity at 750 nm, ×5) [7]: + (0.15 or higher but less than 0.2) | Judgement of assimilation (turbidity at 750 nm, ×5) [4]: +++ (0.3 or higher) | Judgement of assimilation (turbidity at 750 nm, ×5) [8]: ++ (0.2 or higher but less than 0.3) | Judgement of assimilation (turbidity at 750 nm, ×5) [5]: +++ (0.3 or higher) | Judgement of assimilation (turbidity at 750 nm, ×5) [9]: ++ (0.2 or higher but less than 0.3) | Judgement of assimilation (turbidity at 750 nm, ×5) [6]: + (0.15 or higher but less than 0.2) | Judgement of assimilation (turbidity at 750 nm, ×5) [10]: ++ (0.2 or higher but less than 0.3) | Judgement of assimilation (turbidity at 750 nm, ×5) [11]: +++ (0.3 or higher) | Judgement of assimilation (turbidity at 750 nm, ×5) [12]: ++ (0.2 or higher but less than 0.3) | Judgement of assimilation (turbidity at 750 nm, ×5) [13]: ++ (0.2 or higher but less than 0.3) | Judgement of assimilation (turbidity at 750 nm, ×5) [14]: ++ (0.2 or higher but less than 0.3) | Judgement of assimilation (turbidity at 750 nm, ×5) [15]: +++ (0.3 or higher) | Judgement of assimilation (turbidity at 750 nm, ×5) [16]: ++ (0.2 or higher but less than 0.3) | Judgement of assimilation (turbidity at 750 nm, ×5) [17]: +++ (0.3 or higher) | Judgement of assimilation (turbidity at 750 nm, ×5) [18]: + (0.15 or higher but less than 0.2) | Judgement of assimilation (turbidity at 750 nm, ×5) [19]: + (0.15 or higher but less than 0.2) | Judgement of assimilation (turbidity at 750 nm, ×5) [20]: ++ (0.2 or higher but less than 0.3)

OC[C@H]1O[C@H](OC[C@H]2O[C@H](O[C@H]3O[C@H](CO)[C@@H](O)[C@H](O)[C@H]3O)[C@H](O)[C@@H](O)[C@@H]2O)[C@H](O)[C@@H](O)[C@@H]1O [O-α-D-glucopyranosyl -(1→6)-α-D-glucopyranosyl α-D-glucopyranoside]
Judgement of assimilation (turbidity at 750 nm, ×5) [3]: +++ (0.3 or higher) | Judgement of assimilation (turbidity at 750 nm, ×5) [4]: + (0.15 or higher but less than 0.2) | Judgement of assimilation (turbidity at 750 nm, ×5) [6]: ± (0.1 or higher but less than 0.15) | metabolised (Pancreatic juice amylase): 0.5% | LD50 (Acute toxicity test): ≥ 50000 mg/kg | Mortality at a highest possible dose (Acute toxicity test): no mouse died

OC[C@H]1O[C@H](OC[C@H]2O[C@H](OC[C@H]3O[C@H](O[C@H]4O[C@H](CO)[C@@H](O)[C@H](O)[C@H]4O)[C@H](O)[C@@H](O)[C@@H]3O)[C@H](O)[C@@H](O)[C@@H]2O)[C@H](O)[C@@H](O)[C@@H]1O [α-Isomaltotriosyl α-glucoside, O-α-D-glucopyranosyl-(1→6)-O-α-D-glucopyranosyl-(1→6) α-D-glucopyranosyl α-D-glucopyranoside]
Judgement of assimilation (turbidity at 750 nm, ×5) [5]: +++ (0.3 or higher) | Judgement of assimilation (turbidity at 750 nm, ×5) [6]: ± (0.1 or higher but less than 0.15) | metabolised (Pancreatic juice amylase): 0.5% | LD50 (Acute toxicity test): ≥ 50000 mg/kg

OC[C@H]1O[C@H](OC[C@H]2O[C@H](OC[C@H]3OC(O)[C@H](O)[C@@H](O)[C@@H]3O)[C@H](O)[C@@H](O)[C@@H]2O)[C@H](O)[C@@H](O)[C@@H]1O (stereo partly drawn) [Isomaltotriose, isomaltotriose, reference compound]
Coloration degree (at a wavelength of 480 nm) [1]: 0.642

OC[C@H]1O[C@H](O[C@H]2[C@H](O)[C@@H](O)C(O)O[C@@H]2CO)[C@H](O)[C@@H](O)[C@@H]1O (mixture of isomers) [Maltose, reference compound]
metabolised (Salivary amylase): 0% | degraded (in vitro): 0% | metabolised (Pancreatic juice amylase): 0.2%
